How the values were obtained:
[1] = tested on: Staphylococcus aureus V41; assay: MIC, standard agar-dilution assay; type: cell-based; settings: Staphylococcus aureus V41, penicillin-resistant strain; agar dilution
[2] = tested on: Staphylococcus aureus X400; assay: MIC, standard agar-dilution assay; type: cell-based; settings: Staphylococcus aureus X400, methicillin-resistant strain
[3] = tested on: Staphylococcus epidermidis EPI1; type: cell-based; settings: Staphylococcus epidermidis EPI1; agar dilution
[4] = tested on: Streptococcus pneumoniae Park I; type: cell-based; settings: agar dilution
Streptococcus pneumoniae = assay: ED50 in experimentally infected mice; type: in vivo; settings: mice infected with Streptococcus pneumoniae; administered subcutaneously 1 and 4 hours postinfection
Experimental: (§1) Some of the derivatives of this invention have shown in vivo antimicrobial activity against experimentally-induced infections in laboratory animals. When two doses of test compound were administered to experimentally infected mice, the activity observed was measured as an ED50 value [effective dose in mg/kg to protect 50% of the test animals: see Warren Wick, et al., J. Bacteriol. 81, 233-235 (1961)].
(§2) ^a mg/kg × 2; administered subcutaneously 1 and 4 hours

Streptococcus pyogenes = assay: ED50 in experimentally infected mice; type: in vivo; settings: mice infected with Streptococcus pyogenes; administered subcutaneously 1 and 4 hours postinfection
Experimental: as §1, §2

[5] = tested on: Streptococcus Group D X66; assay: MIC, standard agar-dilution assay; type: cell-based; settings: Streptococcus Group D X66; agar dilution
Staphylococcus aureus = assay: ED50 in experimentally infected mice; type: in vivo; settings: mice infected with Staphylococcus aureus; administered subcutaneously 1 and 4 hours postinfection
[6] = tested on: Staphylococcus aureus S13E; type: cell-based; settings: agar dilution
[7] = tested on: Staphylococcus epidermidis EPI2; assay: MIC, standard agar-dilution assay; type: cell-based
[8] = tested on: Haemophilus influenzae 76; assay: MIC, standard agar-dilution assay; type: cell-based; settings: Haemophilus influenzae 76, ampicillin-resistant strain
[9] = tested on: Haemophilus influenzae C.L.; assay: MIC, standard agar-dilution assay; type: cell-based; settings: ampicillin-sensitive strain
[10] = tested on: Streptococcus pyogenes C203; assay: MIC, standard agar-dilution assay; type: cell-based; settings: Streptococcus pyogenes C203; agar dilution
Streptococcus Group 9960 = assay: MIC, standard agar-dilution assay; type: cell-based; settings: Streptococcus Group 9960; agar dilution
[11] = tested on: Staphylococcus aureus X1.1; assay: MIC, standard agar-dilution assay; type: cell-based; settings: Staphylococcus aureus X1.1; agar dilution

| Substance | MIC [1] [µg/mL] | MIC [2] [µg/mL] | MIC [3] [µg/mL] | MIC [4] [µg/mL] | ED50 (Streptococcus pneumoniae) [mg/kg × 2] | ED50 (Streptococcus pyogenes) [mg/kg × 2] | MIC [5] [µg/mL] | ED50 (Staphylococcus aureus) [mg/kg × 2] | MIC [6] [µg/mL] | MIC [7] [µg/mL] | MIC [8] | MIC [9] | MIC [10] [µg/mL] | MIC (Streptococcus Group 9960) [µg/mL] | MIC [11] [µg/mL] |
| --- | --- | --- | --- | --- | --- | --- | --- | --- | --- | --- | --- | --- | --- | --- | --- |
| N--(3,5-dichlorobenzoyl)A41030A [Example 22] | 0.125 | 0.25 | 0.125 | 0.5 | 41 | > 10 | 0.5 | < 0.31 | 0.25 | 0.25 | 8 µg/mL | 16 µg/mL | 0.5 | 0.5 | 0.125 |
| N--(L-phenylalanyl)A41030A [Example 17] | 0.125 | 0.125 | 0.125 | 0.125 | 8.52 | > 10 | 0.5 | 0.08 | 0.125 | 0.125 | 16 µg/mL | 8 µg/mL | 0.125 | 0.125 | 0.125 |
| N--(lauroyl)A41030A [Example 20] | 0.5 | 1 | 0.5 | 1 | > 10 | > 10 | 0.5 | 0.6 | 0.5 | 0.5 | 32 µg/mL | 32 µg/mL | 1 | 0.5 | 0.5 |
| N--(nonanoyl)A41030A [Example 19] | 0.25 | 0.25 | 0.125 | 0.5 | > 10 | > 10 | 0.25 | < 0.31 | 0.25 | 0.25 | 16 µg/mL | 32 µg/mL | 0.5 | 0.25 | 0.125 |
| N--(nonanoyl)A47934 [Example 25] | 0.125 | 0.25 | 0.06 | 0.25 | > 10 | > 10 | 0.25 | < 0.31 | 0.125 | 0.125 | 8 µg/mL | 8 µg/mL | 0.5 | 0.25 | 0.125 |
| N--[4-(N,N--dimethylamino)benzoyl]A41030A [Example 18] | 0.5 | 0.5 | 0.25 | 0.5 | > 10 | > 10 | 1 | 0.46 | 0.25 | 0.5 | 64 µg/mL | -- (Compound not active at less than 128 mcg/ml) | 1 | 2 | 0.25 |
| N--[p-(octyloxy)benzoyl]A41030A [Example 21] | 1 | 2 | 0.5 | 2 | > 10 | > 10 | 2 | 2.19 | 2 | 1 | -- (Compound not active at less than 128 mcg/ml) | -- (Compound not active at less than 128 mcg/ml) | 2 | 1 | 1 |
| N--[p-(octyloxy)benzoyl]A47934 [Example 26] | 0.25 | 0.5 | 0.125 | 0.5 | > 10 | > 10 | 0.5 | 3.6 | 0.25 | 0.5 | 4 µg/mL | 8 µg/mL | 0.5 | 1 | 0.125 |
